Results published in patent US20120101046A1, “PROPHYLACTIC OR THERAPEUTIC AGENT FOR RETINAL DISEASE AND METHOD FOR PROPHYLAXIS OR THERAPY OF RETINAL DISEASE USING JNK (C-JUN AMINO-TERMINAL KINASE) - INHIBITORY PEPTIDE, AND USE OF THE PEPTIDE” (priority 2009, published 2012).
Read-outs that look alike come from different tables or passages of the source. Non-standard residues stand in square brackets, D forms with d. Residues, ends and D or L forms follow the SMILES beside them.

Legend:
[1] = test system: spermidine-induced retinal degeneration model; assay: Spermidine-induced retinal degeneration model, ERG (a-wave) measurement; assay type: in vivo; details: rats, intravitreal
From the text: Therefore, a spermidine-induced retinal degeneration model is used as a model for evaluating therapeutic agents for diseases involving retinal pigment epithelial damage, such as atrophic AMD (Invest. Ophthalmol. Vis. Sci., 48 (1), 455-463 (2007) (NPL 1); Invest. Ophthalmol. Vis. Sci. 51, ARVO E-abstract 3644 (2010); etc.). Thus, an effect of the JNK-inhibitory peptide of the present invention on photoreceptor cell damage caused by retinal pigment epithelial damage was investigated using the aforementioned model, and then compared with that obtained by the representative JNK-inhibitor, SP600125.
To a control group, 10 μL of Dulbecco PBS was administered. To a vehicle-administered group, 10 μL of a 2 mM solution of spermidine dissolved in Dulbecco PBS was administered. To a peptide A-administered group, a 4 mM solution of spermidine dissolved in Dulbecco PBS was mixed with 0.6 mg/mL peptide A dissolved in Dulbecco PBS to give a 1:1 mixture, and 10 μL of the solution was administered into the vitreous cavity. To an SP600125-administered group, spermidine was dissolved in a 0.3 mg/mL solution of SP600125 dissolved in Dulbecco PBS to give a concentration of 2 mM, and 10 μL of the solution was administered into the vitreous cavity. As spermidine, “Spermidine, Trihydrochloride” (Cat. No. 56766), purchased from Calbiochem, was used. […] As SP600125, “SP600125” (Cat. No. S5567-50 MG), purchased from Sigma Aldrich, was used.
Suppression ratios against reduction in ERG amplitude were subsequently calculated using an equation 1 shown below.
Suppression ratio against reduction in ERG amplitude (%)=((Ex−Ev)/(Ec−Ev))×100, [Equation 1]

[2] = test system: laser-induced rat choroidal neovascularization model; assay: Laser-induced rat choroidal neovascularization model, fluorescent fundus angiography; assay type: in vivo; details: rats, intravitreal, 3 μg/eye, day 7 after photocoagulation
Method: As a pharmacological test model for investigating an inhibitory effect on choroidal neovascularization, a laser-induced choroidal neovascularization model is widely used (Folia Ophthalmologica Japonica, 45, 853-856 (1994)).
Photocoagulation was subsequently performed using a krypton laser photocoagulator (manufactured by NIDEK, a multicolor laser photocoagulator MC-7000). With focusing laser beam on the deep retinal layers, photocoagulation was conducted in the posterior portion of the ocular fundus at 8 spots per eye in a dispersed manner, while avoiding thick retinal blood vessels. After photocoagulation, fundus photography was performed to identify the laser-irradiated sites.
To a vehicle-administered group, 5 μL of physiological saline was administered.
Subsequently, 0.1 mL of a 10% fluorescein sodium solution was injected via the tail vein, and fluorescent fundus angiography (manufactured by Kowa, Fundus Camera Kowa PROIII) was performed. In fluorescent fundus angiography, spots at which fluorescence exposure was not observed was determined as negative (without neovascularization), and spots at which fluorescence exposure was observed were determined as positive (with neovascularization). Moreover, when there were two photocoagulation sites at which slight fluorescence exposure was observed, these photocoagulation sites were determined as positive (with neovascularization). […]

[3] = test system: tunicamycin-induced rat photoreceptor cell damage model; details: rats, intravitreal, 2.7 μg/eye, 7 days after tunicamycin administration
Method: Such a model was thus used to evaluate the usefulness of the JNK-inhibitory peptide of the present invention against photoreceptor cell damage.
General anesthesia was induced in rats by intramuscular administration of 1 mL/kg of a mixture (7:1) of a 5% (W/V) ketamine hydrochloride injection solution and a 2% xylazine hydrochloride injection solution. A 0.5% (W/V) tropicamide-0.5% phenylephrine hydrochloride ophthalmic solution was instilled into their eyes to cause dilation of the pupils. Under conditions that ocular fundus is visualized, a microsyringe (25 μL volume, Hamilton) fitted with a 33 G needle was used and inserted into the vitreous cavity. To a control group, 54 of a mixture (1:9) of dimethyl sulfoxide and physiological saline was administered. […]
After 7 days from the administration of tunicamycin, general anesthesia was induced in the rats under dark adaptation by intramuscular administration of 1 mL/kg of a mixture (7:1) of a 5% (W/V) ketamine hydrochloride injection solution and a 2% xylazine hydrochloride injection solution. […] Then, using an electroretinogram (ERG) measurement apparatus (manufactured by Tomey Corporation, portable ERG&VEP LE-3000), ERGs (a-wave) were measured. Suppression ratio against reduction in ERG amplitude was subsequently calculated using an equation 4 shown below. […]

[4] = 3 μg/eye, 13 days after spermidine administration

Compound | Suppression ratio against Reduction in ERG (a-Wave) amplitude (%) [1, 4] [%] | Suppression ratio against Reduction in ERG (a-Wave) amplitude (%) ([1]; 3 μg/eye, 13 days after spermidine administration, listed as peptide A) | Suppression Ratio (%) of Choroidal Neovascularization Development [2] [%] | Suppression Ratio (%) of Choroidal Neovascularization Development ([2]; listed as peptide A) | Suppression ratio against Reduction in ERG (a-Wave) amplitude (%) [3] [%] | Suppression ratio against Reduction in ERG (a-Wave) amplitude (%) ([3]; listed as peptide A) | damage suppression effect in the spermidine model [1] | aggravated the reduction in ERG amplitude [1, 4]
CC(C)C[C@@H](NC(=O)[C@@H](CC(N)=O)NC(=O)[C@@H](CC(C)C)NC(=O)[C@H](NC(=O)[C@H](NC(=O)[C@H]1CCCN1C(=O)[C@@H](CCCNC(=N)N)NC(=O)[C@@H](CCCCN)NC(=O)[C@H]1CCCN1C(=O)[C@@H](CCCNC(=N)N)NC(=O)[C@H]1CCCN1C(=O)[C@H]1CCCN1C(=O)[C@@H](CCCNC(=N)N)NC(=O)[C@@H](CCCNC(=N)N)NC(=O)[C@@H](CCCNC(=N)N)NC(=O)[C@@H](CCC(N)=O)NC(=O)[C@@H](CCCNC(=N)N)NC(=O)[C@@H](CCCNC(=N)N)NC(=O)[C@@H](CCCCN)NC(=O)[C@@H](CCCCN)NC(=O)[C@@H](CCCNC(=N)N)NC(=O)CN)[C@H](C)O)[C@H](C)O)C(=O)N[C@H](Cc1ccccc1)C(=O)N1CCC[C@@H]1C(=O)N[C@H](CCC(N)=O)C(=O)N[C@@H](C(=O)N1CCC[C@@H]1C(=O)N[C@H](CCCNC(=N)N)C(=O)N[C@H](CO)C(=O)N[C@H](CCC(N)=O)C(=O)N[C@H](CC(=O)O)C(=O)O)C(C)C [Peptide A] (H-G[dR][dK][dK][dR][dR][dQ][dR][dR][dR][dP][dP][dR][dP][dK][dR][dP][dT][dT][dL][dN][dL][dF][dP][dQ][dV][dP][dR][dS][dQ][dD]-OH) | 72.7 | approximately 73% | 14.3 | approximately 14% | 50.0 | approximately 50% | – | –
Oc1c2ccccc2c2c3c(cccc13)N=N2 [SP600125] | −17.6 | – | – | – | – | – | no damage suppression effect | approximately 18%
